Source: the METLIN SMRT retention time set (Domingo-Almenara et al. 2019)

Experiment: gradient 5% acetonitrile 3 min, to 50% in 2 min, to 85% in 15 min, held 3 min, 100 µL/min
Details: column: Zorbax Extend-C18 2.1 x 50 mm; eluents: water / acetonitrile, 0.1% formic acid
Method in brief: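 Each retention time is based on an adduct peak selected computationally and verified by manual inspection. Measurements used HPLC–quadrupole time-of-flight mass spectrometry in positive and negative ionization mode on mixtures of ~100 pure standards. Chromatography ran on a Zorbax Extend-C18 column (2.1 × 50 mm, 1.8 μm) at 100 μL/min with water and acetonitrile, each containing 0.1% formic acid, and dead and dwell volumes of 40 μL and 900 μL.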

Structure (SMILES)	RP-LC retention time
Cc1cc(C(=O)Nc2ccc3c(c2)CCC(=O)N3C)no1	686 s
Cc1cccc(CNC(=O)CN2C(=O)CCc3cc(Br)ccc32)c1	889 s
O=C(Nc1cccc(F)c1)C1CCN(S(=O)(=O)c2ccc3[nH]c(=O)ccc3c2)CC1	736 s
CCc1cccc(NS(=O)(=O)c2c[nH]c3ncccc23)c1	762 s
Cn1c(C(=O)NCCN2CCOCC2)cc2c(=O)oc3ccccc3c21	603 s
CN(C)c1ccc(CNC(=O)CCCN2C(=O)CCn3nc(-c4cccn4C)cc32)cc1	610 s
Cn1c(=O)n([C@H]2CCN(C(=O)C3CC3)C2)c2ncccc21	639 s
CCCn1c(-c2cccc(C(=O)NCc3c(C)cc(C)cc3C)c2)nc2cccnc21	979 s
CCOC(=O)c1ccc(NC(=O)C2CCCN(S(=O)(=O)c3cc(OC)ccc3OC)C2)cc1 (stereo not drawn)	975 s
COc1ccc(CNC(=O)CCC2CCN(c3cc(NC4CC4)ncn3)CC2)cc1	645 s
Cc1nc(-c2ccccc2)cc2nn(CC(=O)Nc3ccc(F)c(Cl)c3)c(=O)n12	1010 s
Cc1ccccc1CNC(=O)C1(c2ccc(NS(C)(=O)=O)cc2)CCCCC1	917 s
O=C(Cn1c(=O)n(CCc2ccccc2)c(=O)c2ncccc21)Nc1ccc2c(c1)OCO2	734 s
Cc1nnc(-c2ccc3ccn(CC(=O)Nc4ccc(F)cc4F)c3c2)o1	801 s
CCC1c2nccn2CCCN1C(=O)c1ccc2c(c1)OCO2 (stereo not drawn)	593 s
Cc1ccccc1CNC(=O)C1(C)Oc2cccnc2N(C(C)C)C1=O (stereo not drawn)	978 s
O=C(Cc1ccsc1)Nc1cccc(-c2nnc3n2CCCC3)c1	668 s
Cc1ccc(OCC(=O)Nc2nc(-c3ccccc3)cs2)c(Br)c1	1310 s
O=C(Nc1ccccn1)C1CCN(C(=O)C2Sc3ccccc3NC2=O)CC1 (stereo not drawn)	622 s
COc1ccc(OC)c(S(=O)(=O)N2CCCC(C(=O)Nc3cccc(SC)c3)C2)c1 (stereo not drawn)	972 s
O=C(NC1CCCCCC1)c1ccc2c(c1)nc1n2CCN(c2ccccc2)C1=O	804 s
Cn1nc(-c2nnc(-c3ccccc3)o2)c2c1CCN(S(=O)(=O)c1cccc(Cl)c1)C2	990 s

Structure (SMILES)	RP-LC retention time
O=C(CN1C(=O)CC(c2ccccc2)=Nc2ccccc21)NCc1ccccc1	919 s
COc1ccc(-c2cc(C(F)(F)F)n3ncc(C(=O)NCc4cn(C)nc4C)c3n2)cc1OC	780 s
CCc1ccc(-c2cn3cc(C(=O)NC4CC4)ccc3n2)cc1	655 s
Cc1cc(C)c(C)c(S(=O)(=O)N2CCN(c3nc4ccncc4n(C)c3=O)CC2)c1C	755 s
O=C(CN1c2ccc(F)cc2-c2ccccc2S1(=O)=O)Nc1cccc(F)c1	982 s
COc1cc(NC(=O)Cn2nc3cc(-c4ccccc4)nc(C)n3c2=O)cc(OC)c1	736 s
COC(=O)c1sc2cccc(F)c2c1S(=O)(=O)N1CCC(C(N)=O)(N2CCCCC2)CC1	649 s
CCCCCCNC(=O)C1CCN(C(=O)C(C)(C)C)CC1	804 s
CCCCN1CCN(c2ccc(-c3csc(S(=O)(=O)N4CCCCC4)c3)nn2)CC1	686 s
CC1CCN(CCCNC(=O)C2CCc3sc(C(=O)N4CCCC4)cc3C2)CC1 (stereo not drawn)	610 s
Cc1cc(-c2nnc(-c3ccccc3)o2)c(C)n1CC(=O)NCc1ccco1	826 s
COc1cc([C@@H]2c3cc4c(cc3[C@H](O)C3COC(=O)[C@@H]32)OCO4)cc(OC)c1OC (stereo partly drawn)	811 s
O=C(Nc1ccc(OC(F)(F)F)cc1)C1CCCN(C(=O)c2cc(-c3ccncc3)n[nH]2)C1 (stereo not drawn)	692 s
COc1cc(NC(=O)CSc2nc3nc(C)cc(C)n3n2)cc(OC)c1	726 s
COc1ccc(C(CNC(=O)c2cc(=O)c3cc(C)c(C)cc3o2)N(C)C)cc1 (stereo not drawn)	644 s
Cc1cc(N2CCN(C(=O)Nc3ccccc3C)CC2)nc(N2CCCC2)n1	651 s
Fc1ccccc1-c1nnc(CN2CCN(c3ccccn3)CC2)o1	596 s
CCS(=O)(=O)Nc1ccc(C2(C(=O)NCc3ccc(C)cc3)CCC2)cc1	863 s
CCOc1nc2ccccc2nc1N1CCCC(C(=O)Nc2ccc(Br)cc2)C1 (stereo not drawn)	1340 s
Cc1cc(C)c(S(=O)(=O)N2CCC3(CC2)NCCN=C3NCc2ccccc2C)cc1C	815 s
Cc1ccn2cc(-c3ccc(NC(=O)/C=C/c4ccccc4)cc3)nc2n1	673 s
Cc1cccc(NC(=O)Cc2csc3nc(-c4cccc(Br)c4)cn23)c1C	983 s

Structure (SMILES)	RP-LC retention time
CCc1nccn1Cc1noc(-c2cccc(Cl)c2)n1	656 s
CCCOc1ccc(Br)cc1-c1cc(-c2ccc(Cl)cc2)[nH]c1-c1ccncc1	1040 s
Cc1cc2c(cc1S(=O)(=O)N1CCCC1C(=O)NCc1ccc(Cl)cc1)OCC(=O)N2 (stereo not drawn)	806 s
CN(C(=O)Cn1cnc2nc3c(cc2c1=O)CCCC3)c1ccccc1F	722 s
CCCS(=O)(=O)c1nc2ccc(NS(=O)(=O)c3cccc4nsnc34)cc2s1	878 s
COCCn1cc2c3c(cccc31)CN(C(=O)Nc1cc(Cl)ccc1OC)CC2	1070 s
CN1C(=O)c2ccccc2Oc2ccc(C(=O)NC3CCCCC3)cc21	891 s
Cc1ccc(-n2nc(N3CCCC(C(=O)Nc4ccc(F)cc4F)C3)ccc2=O)cc1Cl (stereo not drawn)	1020 s
Cc1nnc(-c2coc(S(=O)(=O)N3CCCCCC3)c2)o1	824 s
Cc1sc(-c2cc(C(F)(F)F)on2)cc1S(=O)(=O)N1CCN(c2ccccc2)CC1	1300 s
COCCn1cc(CCNC(=O)Nc2ccc(C)c(Cl)c2)c2cccnc21	812 s
O=C(C1=COCCO1)N1CCN(c2ccccc2)CC1	694 s
Cc1nc(N2CCOCC2)c2c(C)c(C(=O)Nc3cccc(Cl)c3C)sc2n1	885 s
O=C(C1=CN(c2ccc(Cl)cc2)c2ccccc2S1(=O)=O)N1CCCC1	827 s
COc1ccc(OC)c(N2C=C(C#N)S(=O)(=O)c3ccc(F)cc32)c1	921 s
CCN(Cc1ccccc1)C(=O)c1ncn2c1C(=O)N(CC)C(C)(C(=O)NCc1ccc(F)cc1)C2 (stereo not drawn)	762 s
COC(=O)c1c(C)oc2ccc(OCC(=O)c3ccc(F)cc3)cc12	999 s
CCn1ncc(NC(=O)c2cccc(F)c2)c(N2CCOCC2)c1=O	788 s
Cc1ccc(-c2ccc(N3CCCC(C(=O)NC4CCCC4)C3)nn2)cc1C (stereo not drawn)	738 s
CSc1cccc(NC(=O)Cn2cnc3nc(N4CCC(C(=O)NC5CC5)CC4)sc3c2=O)c1	696 s
CCOc1ccc(-c2noc(C3CC(=O)N(c4ccc5c(c4)OCO5)C3)n2)cc1 (stereo not drawn)	951 s
CSc1ncn(-c2nc(N(C)C)nc(N3CCCCCC3)n2)n1	1200 s

Structure (SMILES)	RP-LC retention time
COc1cc(OC)c(NC(=O)c2cnn(-c3ccccc3)c2)cc1Cl	944 s
Cc1ccc(S(=O)(=O)N2CCc3c(c(-c4nnc(-c5ccccc5F)o4)nn3C)C2)cc1	955 s
CC(C)N1C(=O)Cc2ccccc2C1C(=O)NCc1ccco1 (stereo not drawn)	720 s
CCC1Oc2ccc(S(=O)(=O)N3CCC(C(=O)Nc4cc(Cl)ccc4C)CC3)cc2NC1=O (stereo not drawn)	948 s
COc1cc(OC)c(NC(=O)C2=C(C)C(=O)OC23CCN(C(C)=O)CC3)cc1Cl	730 s
CC(=O)Nc1nc(-c2ccc(S(=O)(=O)N3CCN(c4ccccc4)CC3)cc2)cs1	960 s
CS(=O)(=O)N1CCCC(C(=O)NC2CC2)CCNC(=O)CC1 (stereo not drawn)	816 s
CCOC(=O)c1[nH]c(C)c(CCC(=O)Nc2cc(OC)cc(OC)c2)c1C	880 s
CCN1C(=O)c2cccnc2Sc2cc(CNC(=O)c3ccccc3F)ccc21	702 s
Cn1ncc2c(N3CCCC3)nc(C(=O)NCc3ccc(C(F)(F)F)cc3)nc21	905 s
O=C(Cn1nc2c3cc(-c4ccc(F)cc4)nn3ccn2c1=O)Nc1ccc(Br)cc1F	989 s
Cc1ccsc1C(=O)NCCc1cn(CC(C)C)c2ncccc12	844 s
Cc1cccc(CNC(=O)C2(C)Oc3cccnc3NC2=O)c1 (stereo not drawn)	704 s
O=C(NC1CCCCC1)C1CCCN(c2nccn3nc(-c4ccccc4Cl)cc23)C1 (stereo not drawn)	976 s
COc1ccc(CNC(=O)C2(c3ccc(NC(C)=O)cc3)CCCCC2)c(OC)c1	841 s
COCCN1C(=O)c2ccccc2C(C(=O)NCCc2c[nH]c3ccccc23)C12CCCC2 (stereo not drawn)	845 s
CC1CC(C)OP(=O)(OCCC#N)O1 (stereo not drawn)	650 s
CCC(C)CC(=O)N1CCCN(C2=NS(=O)(=O)C(c3ccc(C)cc3)=C2C)CC1 (stereo not drawn)	900 s
COCC(=O)N1CCCn2nc(-c3ccccc3)cc2C1	669 s
O=C(c1ccccn1)N1CCCn2nc(-c3ccc(Cl)cc3)cc2C1	817 s
Cc1cc(-c2ccc(S(=O)(=O)N3CCC(C(=O)NC4CCCCCC4)CC3)o2)n[nH]1	852 s
CCc1cccc(NS(=O)(=O)c2cn(CC(C)C)c3ncccc23)c1	1070 s
